Data from PubChem BioAssay AID1645862 (Buhrlage Lab, Dana-Farber Cancer Institute and Novartis …, 2021).
Calls of active or inactive are those of the source. How the calls were made is not given here.

molecular target: Ubiquitin carboxyl-terminal hydrolase 8 (Homo sapiens) (UniProt P40818); assay: Ubiquitin-specific protease 8 inhibitors, concentration-effect, biochemical, validation of initial actives (AID 1645862); settings: recombinant USP8 deubiquitinase activity assay;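 further: potency reflects inhibition of USP8 cleavage of a ubiquitin rhodamine substrate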
Sequence (P40818 whole entry, looked up): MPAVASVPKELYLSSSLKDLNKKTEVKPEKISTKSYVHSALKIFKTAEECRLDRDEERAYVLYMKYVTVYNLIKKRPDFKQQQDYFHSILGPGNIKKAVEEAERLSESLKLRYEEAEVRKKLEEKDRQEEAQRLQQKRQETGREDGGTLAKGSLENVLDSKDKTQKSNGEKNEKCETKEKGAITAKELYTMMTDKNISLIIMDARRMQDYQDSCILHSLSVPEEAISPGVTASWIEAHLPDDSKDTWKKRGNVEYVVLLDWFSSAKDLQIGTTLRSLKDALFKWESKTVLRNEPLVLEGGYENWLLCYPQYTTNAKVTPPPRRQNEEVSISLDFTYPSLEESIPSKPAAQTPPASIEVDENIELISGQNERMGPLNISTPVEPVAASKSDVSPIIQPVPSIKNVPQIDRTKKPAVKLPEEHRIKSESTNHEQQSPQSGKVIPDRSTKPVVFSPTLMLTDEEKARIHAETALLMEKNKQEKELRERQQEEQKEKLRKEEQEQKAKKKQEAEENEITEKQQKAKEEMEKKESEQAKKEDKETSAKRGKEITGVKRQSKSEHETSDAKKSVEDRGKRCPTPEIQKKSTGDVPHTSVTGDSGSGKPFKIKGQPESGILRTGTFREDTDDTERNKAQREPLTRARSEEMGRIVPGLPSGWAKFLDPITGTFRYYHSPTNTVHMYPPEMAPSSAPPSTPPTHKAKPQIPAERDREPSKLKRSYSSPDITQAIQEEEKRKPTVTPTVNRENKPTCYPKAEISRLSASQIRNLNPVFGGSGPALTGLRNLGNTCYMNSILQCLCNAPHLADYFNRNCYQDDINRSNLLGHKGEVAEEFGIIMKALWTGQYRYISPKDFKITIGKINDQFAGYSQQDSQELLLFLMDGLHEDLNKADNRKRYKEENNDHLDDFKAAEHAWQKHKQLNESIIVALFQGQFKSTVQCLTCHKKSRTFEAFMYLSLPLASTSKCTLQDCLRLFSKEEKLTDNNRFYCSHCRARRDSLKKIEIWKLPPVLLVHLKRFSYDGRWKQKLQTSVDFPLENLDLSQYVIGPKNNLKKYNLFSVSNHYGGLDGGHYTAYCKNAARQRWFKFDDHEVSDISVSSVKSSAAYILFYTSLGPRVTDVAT

Compound	IC50
COc1cccc(NC(=O)C2C3C=CC4(O3)C2C(=O)N(CCc2ccc(Cl)cc2)C4C(=O)NC2CCCCC2)c1 (stereo not given)	> 40 µM (inactive)
O=C1CC(O)C(O)c2cccc(O)c21 (stereo not given)	> 40 µM (inactive)
Cc1ccc(S(=O)(=O)Nc2cccc(Cl)c2)cc1NC(=O)CCC(=O)c1ccc(Cl)cc1	> 40 µM (inactive)
CCc1ccc(NC(=O)CSc2nc3nccnc3c(=O)n2Cc2ccc(F)cc2)cc1	> 40 µM (inactive)
CCc1ccc(OCCn2c(CCNC(=O)C3CCCCC3)nc3ccccc32)cc1	> 40 µM (inactive)
O=C(Cn1c(=O)n(CC2CCC(C(=O)NCCc3ccccc3)CC2)c(=O)c2ccccc21)NCc1ccco1 (stereo not given)	> 40 µM (inactive)
Cc1nc(SCC(=O)NC(C)c2ccccc2)c2oc3ccccc3c2n1 (stereo not given)	> 40 µM (inactive)
CCOc1ccc(C2SCC(=O)Nc3c2c(=O)[nH]n3C2CCCCC2)cc1 (stereo not given)	> 40 µM (inactive)
CCOc1ccc2c(c1)c(=O)c(C(=O)c1ccccc1)cn2CC(=O)Nc1ccc(Cl)cc1	32.2 µM
O=C(c1cnc2[nH][nH]c(=O)c2c1)c1cc(Cl)cc(Cl)c1O	10.7 µM
CNC(=O)Cc1ccc(NC(=O)/C=C/c2cn(-c3ccccc3)nc2-c2ccc(F)cc2)cc1	> 40 µM (inactive)
O=C(NCCc1cccnc1)c1ccn(-c2ccc3ccccn23)n1	> 40 µM (inactive)
O=C(Cn1cnc(-c2noc(-c3cccc(F)c3)n2)c1)Nc1ccccc1	> 40 µM (inactive)
Cc1cc(Cl)ccc1NC(=O)c1cc(-c2cccnc2)n[nH]1	> 40 µM (inactive)
Cc1ccc(NC(=O)c2cc(-c3cccnc3)n[nH]2)cc1F	> 40 µM (inactive)
O=C(CC1C(=O)Nc2nc(-c3ccccc3)nn21)Nc1cccc2ccccc12 (stereo not given)	> 40 µM (inactive)
COc1ccc(NC(=O)c2[nH]nc3c2COc2ccccc2-3)c(OC)c1	> 40 µM (inactive)
Cc1ccc(NC(=O)CSc2nnc(-c3n[nH]c4c3CCC4)n2N)cc1C	> 40 µM (inactive)
CSc1cccc(NC(=O)C2C3C=CC4(O3)C2C(=O)N(CCc2ccccc2)C4C(=O)NC2CCCCC2)c1 (stereo not given)	> 40 µM (inactive)
O=C(CNC(=O)OCc1ccccc1)Nc1ccc(Br)cc1C(=O)c1ccccc1Cl	> 40 µM (inactive)
Cc1ccc(CNC(=O)c2ccc3nn(CC(=O)Nc4ccccc4F)c(=O)n3c2)cc1	> 40 µM (inactive)
Cc1ccc(C)c(Cn2cnc3c(nnn3-c3cccc(F)c3)c2=O)c1	> 40 µM (inactive)
O=C(c1ccccn1)N1CCC2(CC1)CC1(CO2)Nc2ccccc2-n2cccc21 (stereo not given)	23.1 µM

Compound	IC50
O=C(O)C1C(C(=O)Nc2ccccc2)C2(c3ccccc3)C(=O)C1(c1ccccc1)C(c1ccccc1)=C2c1ccccc1 (stereo not given)	15.4 µM
COc1ccc(S(=O)(=O)NC2CC(=O)N(c3ccc(Cl)cc3)C2)cc1 (stereo not given)	> 40 µM (inactive)
CC(=O)N1CCc2cc(S(=O)(=O)NC(Cc3ccccc3)C(=O)Nc3cccc(Cl)c3C)ccc21 (stereo not given)	> 40 µM (inactive)
O=C(Nc1ccccc1)Nc1ccc(F)c(-c2nnc(-c3ccccc3)o2)c1	> 40 µM (inactive)
C[C@H](Cc1cc2c(cc1O)OCO2)[C@@H](C)Cc1cc2c(cc1O)OCO2	33.2 µM
O=C(Nc1nnc(-c2cccc([N+](=O)[O-])c2)o1)C1CCN(S(=O)(=O)c2ccc3c(c2)CCC3)CC1	> 40 µM (inactive)
CNc1nc2c(c(=O)n1C)CN(C(=O)Nc1cccc3ccccc13)CC2	> 40 µM (inactive)
CCCN1CCN(C(=O)Cn2c(C)ccc(NC(=O)c3ccccc3)c2=O)CC1	> 40 µM (inactive)
CC1CCCN(S(=O)(=O)c2ccc(-n3cnc(C(=O)NC4CC4)c3)nc2)C1 (stereo not given)	> 40 µM (inactive)
COc1ccc2c(c1)CCc1c-2n[nH]c1C(=O)Nc1cc(C)on1	> 40 µM (inactive)
NS(=O)(=O)c1cccc(NS(=O)(=O)c2ccc(/C=C/C(=O)OCC(=O)c3ccc(Br)cc3)cc2)c1	> 40 µM (inactive)
N#C/C(=C\c1ccccc1F)c1nnc(N)s1	> 40 µM (inactive)
CCn1cc2c(n1)c(=O)n(Cc1ccccc1)c(=O)n2CC(=O)Nc1ccc(C)cc1C	24.4 µM
O=C(NCC1(c2ccccc2)CCC1)c1nc2n(n1)-c1ccccc1S(=O)(=O)N2	> 40 µM (inactive)
CC(=O)c1cc(-c2ccc(F)cc2)n(CC(=O)Nc2cccc(C)c2C)c1C	> 40 µM (inactive)
Cc1cc2nc(SCC(=O)c3ccc(O)cc3)[nH]c2cc1C	> 40 µM (inactive)
COc1ccc(NC(=O)CC(=O)c2ccc([N+](=O)[O-])cc2)cc1S(=O)(=O)Nc1ccc(Br)cc1	> 40 µM (inactive)
Cc1ccc(-n2c(=O)[nH]c3c(C(N)=O)nc(-c4ccc(OCc5ccccc5)cc4)nc32)cc1	> 40 µM (inactive)
COc1ccc(CC(=O)Nc2ccccc2-c2nc3ccccc3[nH]2)cc1OC	> 40 µM (inactive)
O=C(Nc1cc(S(=O)(=O)Nc2ccc(Cl)cc2)ccc1O)c1cc2c(s1)CCC2	10.7 µM
CCOc1ccc2c(c1)c(=O)c(C(=O)c1ccccc1)cn2CC(=O)Nc1ccc(OC)cc1	> 40 µM (inactive)
COc1ccc(C2NC(=O)NC(C)=C2C(=O)OCC2CCCCC2)cc1OC (stereo not given)	> 40 µM (inactive)
N#Cc1ccccc1Cn1c(=O)n(CCCC(=O)NCc2ccc(F)cc2)c(=O)c2ccccc21	> 40 µM (inactive)

Compound	IC50
Cc1cccc(-c2nnn3c2nc(NCC2CCCO2)c2ccccc23)c1 (stereo not given)	> 40 µM (inactive)
COc1ccc(C2/C(=C(\O)c3ccccc3)C(=O)C(=O)N2c2cccc(C(F)(F)F)c2)cc1 (stereo not given)	> 40 µM (inactive)
Cc1cccc(NC(=O)CSc2nc3c(cc2C#N)C(=O)CCC3)c1	> 40 µM (inactive)
COc1ccc(NC(=O)c2nnc(C(=O)NCCN3CCCCCC3)s2)cc1	> 40 µM (inactive)
CCOC(=O)C1CCN(Cc2cc(=O)oc3cc(O)c(O)cc23)CC1	1.29 µM
Cc1cc(C)c(C#N)c(N2CCN(CCOc3ccc(Cl)cc3)CC2)n1	> 40 µM (inactive)
Fc1ccccc1-c1nc2c3cnn(-c4ccccc4)c3ncn2n1	> 40 µM (inactive)
COc1ccc(-c2cc(-c3ccc(F)cc3)[nH]c(=O)c2C#N)cc1	> 40 µM (inactive)
COc1ccc(/C=C/C(=O)Nc2ccc(Cl)c(-c3nc4ncccc4o3)c2)cc1	> 40 µM (inactive)
Cc1ccc(-n2nc(C)c3c2NC(=O)CC3C(=O)c2cc3ccccc3o2)cc1C (stereo not given)	> 40 µM (inactive)
CCCCCCCCCC(CCCCCCCCCC(=O)O)O[C@H]1O[C@@H](COC(C)=O)[C@H](O)[C@@H](OC(=O)CC(=O)O)[C@H]1O (stereo not given in full)	> 40 µM (inactive)
O=C(Nc1ccccc1-c1nc2ccccc2[nH]1)c1sc2ccccc2c1Cl	10.5 µM
Cc1ccc2nc(CNc3ccc(F)cc3C)cc(=O)n2c1	> 40 µM (inactive)
O=C(Nc1ccc(F)cc1F)c1cc(-c2ccccn2)n[nH]1	> 40 µM (inactive)
O=C(Nc1cccc(C(F)(F)F)c1)c1cc2c(s1)-c1ccccc1OC2	> 40 µM (inactive)
O=C(c1cc2occc2c(Nc2ccc(F)cc2)n1)N1CCN(c2ccccc2)CC1	> 40 µM (inactive)
O=C(NC1CCCC1)c1ccc(Cn2c(=O)c3ccccc3n(Cc3cc(=O)n4ccccc4n3)c2=O)cc1	> 40 µM (inactive)
O=C(CNC(=O)c1ccc2nc(-n3cccc3)sc2c1)NCc1ccccc1	> 40 µM (inactive)
Cc1nc(N2CCCC2)ncc1-c1cc(=O)[nH]c(Nc2ccc(Cl)cc2Cl)n1	> 40 µM (inactive)
CC(=O)Nc1ccc(C(=O)/C=C2\NCCc3cc4c(cc32)OCCCO4)cc1	> 40 µM (inactive)
CN1c2ccccc2C(=O)NC12CCN(C(=O)NCc1ccccc1)CC2	> 40 µM (inactive)
Cc1c(-c2nn3c(-c4ccco4)nnc3s2)cccc1[N+](=O)[O-]	> 40 µM (inactive)
Cc1cc(CN2CCCCC2c2cc(=O)n3ccnc3[nH]2)no1 (stereo not given)	> 40 µM (inactive)

Compound	IC50
CCC(C(=O)C(C)C(O)C(C)CCc1ccc(C)c(O)c1C(=O)O)C1OC(CC)(C2CCC(O)(CC)C(C)O2)CC1C (stereo not given)	> 40 µM (inactive)
Cc1ccc(-c2nnc3ccc(SCC(=O)N4CCCc5ccccc54)nn23)cc1	> 40 µM (inactive)
O=C(NCCc1ccccc1)c1ccc2c(=O)n(Cc3ccco3)c(=O)n(Cc3cccc([N+](=O)[O-])c3)c2c1	15.4 µM
COc1ccc(Cl)cc1NC(=O)c1cc(-c2ccccn2)n[nH]1	10.5 µM
Cc1ccc(CNC(=O)CCCn2c(=O)c3sccc3n(CC(=O)Nc3cc(Cl)ccc3C)c2=O)cc1	> 40 µM (inactive)
COc1cc(NC(=O)Cn2c(=O)n(-c3ccc(CC(=O)NC4CCCC4)cc3)c(=O)c3ccccc32)cc(OC)c1	> 40 µM (inactive)
COc1ccc(C(=O)Nc2ccccc2C(=O)NC(Cc2ccc(O)cc2)C(=O)NNC(=O)Cc2ccc(OC)c(OC)c2)cc1 (stereo not given)	> 40 µM (inactive)
COc1cccc2cc(C(=O)Nc3nc(-c4ccncc4)cs3)oc12	19.9 µM
COc1cccc(-c2cncc(C3CCN(S(=O)(=O)N(C)C)CC3)n2)c1	> 40 µM (inactive)
O=C(/C=C/c1c(F)cccc1Cl)N1CCc2ccccc2C1	22 µM
C=C/C(=C/C(=O)C[C@H](C)C[C@@H](C)CC[C@H](O)[C@H](C)C(=O)CC(O)[C@H](C)[C@@H](C)OC(=O)C[C@@H](O)C1=C(C)C(=O)OC1=O)CC (stereo not given in full)	2.6 µM
O=C(Cn1c(=O)c2sccc2n(Cc2ccc([N+](=O)[O-])cc2)c1=O)NCCc1ccccc1	> 40 µM (inactive)
CNc1ncc(C(=O)N2CCOC(C(=O)N3CCCCCC3)C2)cn1 (stereo not given)	> 40 µM (inactive)
CC(C)c1nnc(NC(=O)C2CC(=O)N(CCc3ccc(F)cc3)C2)s1 (stereo not given)	> 40 µM (inactive)
Cc1ccc(Nc2nc(Nc3cccc(F)c3)nc3nccnc23)c(C)c1	> 40 µM (inactive)
O=C(COc1ncnc2sc3c(c12)CCCC3)Nc1ccc2c(c1)OCO2	> 40 µM (inactive)
Fc1cc(F)c2[nH]cc(-c3nnnn3-c3ccc4ccccc4c3)c2c1	> 40 µM (inactive)
Cc1cc(OCC(=O)Nc2ccccc2C(=O)Nc2ccccc2)ccc1Cl	> 40 µM (inactive)
Cc1cc(C(=O)NC2(O)C(=O)c3ccccc3C2=O)n(C)n1	8.2 µM
O=C(Cn1nnc2ccccc21)Nc1nc(-c2ccc3c(c2)CCN3C(=O)c2ccccc2F)cs1	> 40 µM (inactive)
Cc1nnc(-c2cc(S(=O)(=O)N3CCN(c4ccc(F)cc4)CC3)c[nH]2)o1	> 40 µM (inactive)
